Assay results taken from patent publication US9586961B2, “Homopiperazine derivatives as protein tyrosine kinase inhibitors and pharmaceutical use thereof” (LEO PHARMA A/S, priority 2010, dated 2017).

How the values were obtained:
Type in all cases: biochemical
JAK1 = molecular target: T1, JAK1 (Homo sapiens, UniProt P23458); assay: JAK1 kinase assay (HTRF, inhibition of phosphorylation of a synthetic peptide); details: catalytic domain aa 850-1154, GST-tag; 7 μM ATP (Km); read-out: JAK1 kinase inhibitory activity (EC50)
T1 construct: JAK1 (aa 850-1154) and TYK2 (aa 871-1187) are expressed with an N-terminally fused GST-tag; GST (N); purchased Carna Biosciences, Inc; host or cells: baculovirus expression system
Summary of the method: (§1)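 Baculovirus-expressed human catalytic domains (GST-JAK1, GST-TYK2, His-JAK2, His-JAK3) phosphorylated 1 μM TK substrate-biotin at ATP Km (JAK1 7 μM, JAK2 4 μM, JAK3 2 μM, TYK2 13 μM) in pH 7.0 Hepes for 20-30 min at RT, 0.75% DMSO. EDTA stop, then overnight streptavidin-XL665/cryptate-antibody detection and HTRF read.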

JAK2 = molecular target: T2, JAK2 (Homo sapiens, UniProt O60674); assay: JAK2 kinase assay (HTRF, inhibition of phosphorylation of a synthetic peptide); details: catalytic domain, His-tag; 4 μM ATP (Km); read-out: JAK2 kinase inhibitory activity (EC50)
T2 construct: All four purified enzymes contain only the catalytic domain; His (N); purchased Carna Biosciences, Inc; host or cells: baculovirus expression system
Summary of the method: as §1

JAK3 = molecular target: T3, JAK3 (Homo sapiens, UniProt P52333); assay: JAK3 kinase assay (HTRF, inhibition of phosphorylation of a synthetic peptide); details: catalytic domain, His-tag; 2 μM ATP (Km); read-out: JAK3 kinase inhibitory activity (EC50)
T3 construct: All four purified enzymes contain only the catalytic domain; His (N); purchased Carna Biosciences, Inc; host or cells: baculovirus expression system
Summary of the method: as §1

T1 sequence (P23458 850-1154): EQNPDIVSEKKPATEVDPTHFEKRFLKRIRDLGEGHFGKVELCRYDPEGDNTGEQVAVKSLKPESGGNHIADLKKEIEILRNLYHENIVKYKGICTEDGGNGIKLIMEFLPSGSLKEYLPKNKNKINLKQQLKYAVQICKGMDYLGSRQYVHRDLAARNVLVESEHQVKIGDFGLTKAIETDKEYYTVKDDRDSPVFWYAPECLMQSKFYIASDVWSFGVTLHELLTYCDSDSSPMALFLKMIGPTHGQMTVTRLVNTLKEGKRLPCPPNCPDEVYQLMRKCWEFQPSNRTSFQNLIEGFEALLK
T3 sequence (P52333 822-1111 limits assumed): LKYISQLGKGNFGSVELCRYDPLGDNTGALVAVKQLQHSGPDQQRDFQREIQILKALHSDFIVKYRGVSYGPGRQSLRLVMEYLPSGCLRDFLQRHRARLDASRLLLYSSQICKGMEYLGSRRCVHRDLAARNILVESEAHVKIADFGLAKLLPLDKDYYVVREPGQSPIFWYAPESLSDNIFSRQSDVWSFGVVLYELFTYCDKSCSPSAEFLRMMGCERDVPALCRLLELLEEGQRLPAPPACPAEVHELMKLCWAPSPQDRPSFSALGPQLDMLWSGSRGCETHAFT
T2 sequence (O60674 849-1124 limits assumed): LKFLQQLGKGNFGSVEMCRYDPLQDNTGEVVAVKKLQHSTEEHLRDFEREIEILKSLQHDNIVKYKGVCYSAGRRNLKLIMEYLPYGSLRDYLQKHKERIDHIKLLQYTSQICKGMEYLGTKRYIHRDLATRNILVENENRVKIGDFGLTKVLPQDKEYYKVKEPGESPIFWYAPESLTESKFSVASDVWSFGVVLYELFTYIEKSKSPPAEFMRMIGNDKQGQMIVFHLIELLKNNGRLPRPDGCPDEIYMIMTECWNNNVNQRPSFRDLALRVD

Structure (SMILES)	EC50 (JAK1) [µM]	EC50 (JAK2) [µM]	EC50 (JAK3) [µM]
Cc1nnc(C(=O)N2CCCN(c3ncnc4[nH]ccc34)CC23CC3)[nH]1 [Example 257, (5-methyl-4H-1,2,4-triazol-3-yl)-[5-(7H-pyrrolo[2,3-d]pyrimidin-4-yl)-5,9-diazaspiro[2.6]nonan-9-yl]methanone]	0.1 to 1	0.1 to 1	> 1
O=C(Cc1ccc2ccccc2c1)N1CCN(c2ncnc3[nH]ccc23)CC2(CC2)C1 [Example 265, 2-(2-naphthyl)-1-[5-(7H-pyrrolo[2,3-d]pyrimidin-4-yl)-5,8-diazaspiro[2.6]nonan-8-yl]ethanone]	0.1 to 1	< 0.1	0.1 to 1
Cn1cncc1C(=O)N1CCN(c2ncnc3[nH]ccc23)CC2(CC2)C1 [Example 144, (3-methylimidazol-4-yl)-[5-(7H-pyrrolo[2,3-d]pyrimidin-4-yl)-5,8-diazaspiro[2.6]nonan-8-yl]methanone]	0.1 to 1	0.1 to 1	> 1
Cc1oncc1C(=O)N1CCCN(c2ncnc3[nH]ccc23)CC12CC2 [Example 187, (5-methylisoxazol-4-yl)-[5-(7H-pyrrolo[2,3-d]pyrimidin-4-yl)-5,9-diazaspiro[2.6]nonan-9-yl]methanone]	0.1 to 1	0.1 to 1	0.1 to 1
Cc1nc(CC(=O)N2CCN(c3ncnc4[nH]ccc34)CC3(CC3)C2)cs1 [Example 254, 2-(2-methylthiazol-4-yl)-1-[5-(7H-pyrrolo[2,3-d]pyrimidin-4-yl)-5,8-diazaspiro[2.6]nonan-8-yl]ethanone]	0.1 to 1	0.1 to 1	> 1

The remaining lines, values ahead:

EC50 (JAK1) [µM]	EC50 (JAK2) [µM]	EC50 (JAK3) [µM]	Structure (SMILES)
0.1 to 1	0.1 to 1	0.1 to 1	O=C(CN1CCOC1=O)N1CCN(c2ncnc3[nH]ccc23)CC2(CC2)C1 [Example 81, 3-[2-oxo-2-[5-(7H-pyrrolo[2,3-d]pyrimidin-4-yl)-5,8-diazaspiro[2.6]nonan-8-yl]ethyl]oxazolidin-2-one]
0.1 to 1	0.1 to 1	0.1 to 1	O=C1CCC(=O)N1CC(=O)N1CCCN(c2ncnc3[nH]ccc23)CC12CC2 [Example 84, 1-[2-oxo-2-[5-(7H-pyrrolo[2,3-d]pyrimidin-4-yl)-5,9-diazaspiro[2.6]nonan-9-yl]ethyl]pyrrolidine-2,5-dione]
0.1 to 1	< 0.1	0.1 to 1	O=C(c1cscn1)N1CCCN(c2ncnc3[nH]ccc23)CC12CC2 [Example 227, [5-(7H-pyrrolo[2,3-d]pyrimidin-4-yl)-5,9-diazaspiro[2.6]nonan-9-yl]-thiazol-4-yl-methanone]
0.1 to 1	0.1 to 1	0.1 to 1	O=C(c1cc[nH]n1)N1CCCN(c2ncnc3[nH]ccc23)CC12CC2 [Example 183, 1H-pyrazol-3-yl-[5-(7H-pyrrolo[2,3-d]pyrimidin-4-yl)-5,9-diazaspiro[2.6]nonan-9-yl]methanone]
0.1 to 1	0.1 to 1	0.1 to 1	O=C(c1n[nH]c(Cl)n1)N1CCN(c2ncnc3[nH]ccc23)CC2(CC2)C1 [Example 231, (5-chloro-1H-1,2,4-triazol-3-yl)-[5-(7H-pyrrolo[2,3-d]pyrimidin-4-yl)-5,8-diazaspiro[2.6]nonan-8-yl]methanone]
0.1 to 1	0.1 to 1	0.1 to 1	O=C(c1cnco1)N1CCCN(c2ncnc3[nH]ccc23)CC12CC2 [Example 156, oxazol-5-yl-[5-(7H-pyrrolo[2,3-d]pyrimidin-4-yl)-5,9-diazaspiro[2.6]nonan-9-yl]methanone]
0.1 to 1	0.1 to 1	> 1	Cc1cnc(C(=O)N2CCCN(c3ncnc4[nH]ccc34)CC23CC3)cn1 [Example 197, (5-methylpyrazin-2-yl)-[5-(7H-pyrrolo[2,3-d]pyrimidin-4-yl)-5,9-diazaspiro[2.6]nonan-9-yl]methanone]
0.1 to 1	0.1 to 1	0.1 to 1	O=C(c1c[nH]cn1)N1CCCN(c2ncnc3[nH]ccc23)CC12CC2 [Example 134, 1H-imidazol-4-yl-[5-(7H-pyrrolo[2,3-d]pyrimidin-4-yl)-5,9-diazaspiro[2.6]nonan-9-yl]methanone]
